Data as given in patent publication US10059701B2 (Merck Patent GmbH, priority 2015, dated 2018).
Where a name gives a salt, the structure may show the parent alone.

Experiments:
IRAK1 = target: T1, IRAK1 (Homo sapiens, UniProt P51617); assay: IRAK1 enzymatic assay (ADP-Glo luminescence); format: biochemical; details: purified human recombinant His-TEV-IRAK1 (194-712)
T1 construct: His-TEV-IRAK1 (194-712); His (N); TEV cleavage site (N)
In short: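 Luminescent ADP-Glo read-out of ATP turnover by purified His-TEV-IRAK1 (194-712) at 0.3 μg/ml after a 2-hour RT reaction. Compounds, serially diluted from 10 μM to 0.5 nM, were preincubated with enzyme 15 minutes in Hepes pH 7.0 buffer with MgCl2, DTT, EGTA and Triton X-100.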

IRAK4 = target: T2, IRAK4 (Homo sapiens, UniProt Q9NWZ3); assay: IRAK4 enzymatic assay (ADP-Glo luminescence); format: biochemical; details: purified human recombinant His-TEV-IRAK4 (1-460), ATP 2 μM
T2 construct: His-TEV-IRAK4 (1-460); His (N); TEV cleavage site (N)
T2 sequence (Q9NWZ3 1-460): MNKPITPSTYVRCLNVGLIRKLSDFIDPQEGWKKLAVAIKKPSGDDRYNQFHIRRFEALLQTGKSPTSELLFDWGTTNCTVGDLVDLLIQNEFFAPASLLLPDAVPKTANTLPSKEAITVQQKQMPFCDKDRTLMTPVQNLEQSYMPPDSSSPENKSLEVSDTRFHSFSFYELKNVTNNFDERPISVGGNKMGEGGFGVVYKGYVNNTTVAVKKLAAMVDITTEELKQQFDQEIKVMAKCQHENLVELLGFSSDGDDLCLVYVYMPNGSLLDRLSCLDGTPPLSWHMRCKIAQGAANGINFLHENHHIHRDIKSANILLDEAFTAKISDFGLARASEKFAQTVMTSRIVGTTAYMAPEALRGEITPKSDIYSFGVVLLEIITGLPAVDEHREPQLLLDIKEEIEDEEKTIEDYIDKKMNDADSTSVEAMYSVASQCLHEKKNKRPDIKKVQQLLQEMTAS
In short: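 ADP-Glo luminescence read-out after a 2 h RT kinase reaction with 2 μM ATP and 300 nM biotinylated STK1 peptide. Enzyme (His-TEV-IRAK4 1-460, 0.3 μg/ml) first incubated 15 min with serially diluted compounds (10 μM–0.5 nM) in 50 mM Hepes pH 7.0, 10 mM MgCl2, 5 mM MnCl2.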

T1 sequence (P51617 194-712): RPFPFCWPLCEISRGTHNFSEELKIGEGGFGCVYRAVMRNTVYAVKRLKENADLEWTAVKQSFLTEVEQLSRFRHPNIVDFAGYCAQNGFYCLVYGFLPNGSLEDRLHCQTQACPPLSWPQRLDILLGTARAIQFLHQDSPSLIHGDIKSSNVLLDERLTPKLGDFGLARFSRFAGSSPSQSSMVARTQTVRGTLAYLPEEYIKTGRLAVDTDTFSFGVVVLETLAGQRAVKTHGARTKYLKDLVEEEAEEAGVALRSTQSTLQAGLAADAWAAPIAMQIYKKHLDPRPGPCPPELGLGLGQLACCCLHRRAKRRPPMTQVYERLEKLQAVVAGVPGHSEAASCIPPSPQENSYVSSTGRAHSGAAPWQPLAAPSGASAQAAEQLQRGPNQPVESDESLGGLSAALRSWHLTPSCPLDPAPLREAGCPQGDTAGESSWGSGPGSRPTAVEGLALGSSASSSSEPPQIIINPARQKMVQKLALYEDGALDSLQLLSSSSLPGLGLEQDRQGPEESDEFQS

Q: How did the IC50 (IRAK1) turn out when `O=C(/N=c1\[nH]c2cc(N3CCOCC3=O)ccc2n1[C@H]1CC[C@@H](CO)CC1)c1cccc(C(F)F)c1` [Compound 123, cis-(E)-3-(difluoromethyl)-N-(1-(4-(hydroxymethyl)cyclohexyl)-5-(3-oxomorpholino)-1H-benzo[d]imidazol-2(3H)-ylidene)benzamide] was run?
A: ≤ 100 nM

Q: And the IC50 (IRAK4)?
A: ≤ 100 nM

Q: What does the source list for `CC(C)(C)OC(=O)N1CCC(n2/c(=N/C(=O)c3cccc(C(F)(F)F)c3)[nH]c3cc(N4CCOCC4=O)ccc32)CC1` [Compound 126, (E)-tert-butyl 4-(5-(3-oxomorpholino)-2-((3-(trifluoromethyl)benzoyl)imino)-2,3-dihydro-1H-benzo[d]imidazole-1-yl)piperidine-1-carboxylate]?
A: IC50 (IRAK1): > 1000 nM; IC50 (IRAK4): ≤ 100 nM

Q: `CC(C)(C)OC(=O)N1CCC(n2/c(=N/C(=O)c3cccc(C(F)F)c3)[nH]c3cc(N4CCOCC4=O)ccc32)CC1` [Compound 127, (E)-tert-butyl 4-(2-((3-(difluoromethyl)benzoyl)imino)-5-(3-oxomorpholino)-2,3-dihydro-1H-benzo[d]imidazole-1-yl)piperidine-1-carboxylate] was tested. Which IC50 (IRAK1) did it give?
A: 100 to 1000 nM

Q: What about the IC50 (IRAK4) of the same molecule?
A: ≤ 100 nM

Q: How did the IC50 (IRAK1) turn out when `O=C(/N=c1\[nH]c2cc(N3CCOCC3=O)ccc2n1C1CCNCC1)c1cccc(C(F)(F)F)c1` [Compound 128, (E)-N-(5-(3-oxomorpholino)-1-(piperidin-4-yl)-1H-benzo[d]imidazole-2(3H)-ylidene)-3-(trifluoromethyl)benzamide hydrochloride] was run?
A: > 1000 nM

Q: What about the IC50 (IRAK4) of the same molecule?
A: ≤ 100 nM

Q: With `O=C(/N=c1\[nH]c2cc(N3CCOCC3=O)ccc2n1C1CCNCC1)c1cccc(C(F)F)c1` [Compound 129, (E)-3-(difluoromethyl)-N-(5-(3-oxomorpholino)-1-(piperidin-4-yl)-1H-benzo[d]imidazole-2(3H)-ylidene)benzamide hydrochloride] as the molecule, how does the IC50 (IRAK1) read?
A: 100 to 1000 nM

Q: What about the IC50 (IRAK4) of the same molecule?
A: ≤ 100 nM

Q: `CC(=O)N1CCC(n2/c(=N/C(=O)c3cccc(C(F)(F)F)c3)[nH]c3cc(N4CCOCC4=O)ccc32)CC1` [Compound 130, (E)-N-(1-(1-acetylpiperidin-4-yl)-5-(3-oxomorpholino)-1H-benzo[d]imidazole-2(3H)-ylidene)-3-(trifluoromethyl)benzamide] was tested. Which IC50 (IRAK1) did it give?
A: ≤ 100 nM

Q: What about the IC50 (IRAK4) of the same molecule?
A: ≤ 100 nM

Q: For `CC(=O)N1CCC(n2/c(=N/C(=O)c3cccc(C(F)F)c3)[nH]c3cc(N4CCOCC4=O)ccc32)CC1` [Compound 131, (E)-N-(1-(1-acetylpiperidin-4-yl)-5-(3-oxomorpholino)-1H-benzo[d]imidazole-2(3H)-ylidene)-3-(difluoromethyl)benzamide], which IC50 (IRAK1) is on record?
A: 100 to 1000 nM

Q: What about the IC50 (IRAK4) of the same molecule?
A: ≤ 100 nM

Q: `CS(=O)(=O)N1CCC(n2/c(=N/C(=O)c3cccc(C(F)(F)F)c3)[nH]c3cc(N4CCOCC4=O)ccc32)CC1` [Compound 132, (E)-N-(1-(1-(methylsulfonyl)piperidin-4-yl)-5-(3-oxomorpholino)-1H-benzo[d]imidazole-2(3H)-ylidene)-3-(trifluoromethyl)benzamide] was tested. Which IC50 (IRAK1) did it give?
A: 100 to 1000 nM

Q: What about the IC50 (IRAK4) of the same molecule?
A: ≤ 100 nM

Q: With `CS(=O)(=O)N1CCC(n2/c(=N/C(=O)c3cccc(C(F)F)c3)[nH]c3cc(N4CCOCC4=O)ccc32)CC1` [Compound 133, (E)-3-(difluoromethyl)-N-(1-(1-(methylsulfonyl)piperidin-4-yl)-5-(3-oxomorpholino)-1H-benzo[d]imidazole-2(3H)-ylidene)benzamide] as the molecule, how does the IC50 (IRAK1) read?
A: ≤ 100 nM

Q: And the IC50 (IRAK4)?
A: ≤ 100 nM

Q: `CCNC(=O)N1CCC(n2/c(=N/C(=O)c3cccc(C(F)(F)F)c3)[nH]c3cc(N4CCOCC4=O)ccc32)CC1` [Compound 134, (E)-N-ethyl-4-(5-(3-oxomorpholino)-2-((3-(trifluoromethyl)benzoyl)imino)-2,3-dihydro-1H-benzo[d]imidazol-1-yl)piperidine-1-carboxamide] was tested. Which IC50 (IRAK1) did it give?
A: 100 to 1000 nM

Q: What about the IC50 (IRAK4) of the same molecule?
A: ≤ 100 nM

Q: For `CCNC(=O)N1CCC(n2/c(=N/C(=O)c3cccc(C(F)F)c3)[nH]c3cc(N4CCOCC4=O)ccc32)CC1` [Compound 135, (E)-4-(2-((3-(difluoromethyl)benzoyl)imino)-5-(3-oxomorpholino)-2,3-dihydro-1H-benzo[d]imidazol-1-yl)-N-ethylpiperidine-1-carboxamide], which IC50 (IRAK1) is on record?
A: ≤ 100 nM

Q: And the IC50 (IRAK4)?
A: ≤ 100 nM

Q: What does the source list for `O=C(/N=c1\[nH]c2cc(N3CCOCC3=O)ccc2n1C1CCS(=O)(=O)CC1)c1cccc(C(F)(F)F)c1` [Compound 136, (E)-N-(1-(1,1-dioxidotetrahydro-2H-thiopyran-4-yl)-5-(3-oxomorpholino)-1H-benzo[d]imidazol-2(3H)-ylidene)-3-(trifluoromethyl)benzamide]?
A: IC50 (IRAK1): 100 to 1000 nM; IC50 (IRAK4): ≤ 100 nM

Q: What does the source list for `CC(C)Oc1cc2c(cc1N1CCOCC1=O)[nH]/c(=N\C(=O)c1cccc(C(F)F)c1)n2CCCO` [Compound 137, (E)-3-(difluoromethyl)-N-(1-(3-hydroxypropyl)-6-isopropoxy-5-(3-oxomorpholino)-1H-benzo[d]imidazol-2(3H)-ylidene)benzamide]?
A: IC50 (IRAK1): ≤ 100 nM; IC50 (IRAK4): ≤ 100 nM

Q: `N#Cc1cc2c(cc1N1CCOCC1=O)[nH]/c(=N\C(=O)c1cccc(C(F)(F)F)c1)n2CCCO` [Compound 138, (E)-N-(6-cyano-1-(3-hydroxypropyl)-5-(3-oxomorpholino)-1H-benzo[d]imidazol-2(3H)-ylidene)-3-(trifluoromethyl)benzamide] was tested. Which IC50 (IRAK1) did it give?
A: > 1000 nM

Q: What about the IC50 (IRAK4) of the same molecule?
A: ≤ 100 nM

Q: With `O=C(/N=c1\[nH]c2cc(N3CCOCC3=O)c(F)cc2n1CCCO)c1cccc(C(F)(F)F)c1` [Compound 139, (E)-N-(6-fluoro-1-(3-hydroxypropyl)-5-(3-oxomorpholino)-1H-benzo[d]imidazol-2(3H)-ylidene)-3-(trifluoromethyl)benzamide] as the molecule, how does the IC50 (IRAK1) read?
A: 100 to 1000 nM

Q: And the IC50 (IRAK4)?
A: ≤ 100 nM

Q: How did the IC50 (IRAK1) turn out when `O=C(/N=c1\[nH]c2cc(N3CCOCC3=O)c(F)cc2n1CCCO)c1cccc(C(F)F)c1` [Compound 140, (E)-3-(difluoromethyl)-N-(6-fluoro-1-(3-hydroxypropyl)-5-(3-oxomorpholino)-1H-benzo[d]imidazol-2(3H)-ylidene)benzamide] was run?
A: 100 to 1000 nM

Q: What about the IC50 (IRAK4) of the same molecule?
A: ≤ 100 nM

Q: For `O=C(/N=c1\[nH]c2cc(N3CCOCC3=O)c(Cl)cc2n1CCCO)c1cccc(C(F)(F)F)c1` [Compound 141, (E)-N-(6-chloro-1-(3-hydroxypropyl)-5-(3-oxomorpholino)-1H-benzo[d]imidazol-2(3H)-ylidene)-3-(trifluoromethyl)benzamide], which IC50 (IRAK1) is on record?
A: > 1000 nM

Q: And the IC50 (IRAK4)?
A: ≤ 100 nM

Q: Which IC50 (IRAK1) does the source give for `O=C(/N=c1\[nH]c2cc(N3CCOCC3=O)c(Cl)cc2n1CCCO)c1cccc(C(F)F)c1` [Compound 142, (E)-N-(6-chloro-1-(3-hydroxypropyl)-5-(3-oxomorpholino)-1H-benzo[d]imidazol-2(3H)-ylidene)-3-(difluoromethyl)benzamide] here?
A: 100 to 1000 nM

Q: What about the IC50 (IRAK4) of the same molecule?
A: ≤ 100 nM

Q: For `COc1cc2c(cc1N1CCOCC1=O)[nH]/c(=N\C(=O)c1cccc(C(F)(F)F)c1)n2[C@H](C)CCO` [Compound 143, (R,E)-N-(1-(4-hydroxybutan-2-yl)-6-methoxy-5-(3-oxomorpholino)-1H-benzo[d]imidazol-2(3H)-ylidene)-3-(trifluoromethyl)benzamide], which IC50 (IRAK1) is on record?
A: 100 to 1000 nM

Q: What about the IC50 (IRAK4) of the same molecule?
A: ≤ 100 nM

Q: How did the IC50 (IRAK1) turn out when `O=C(/N=c1\[nH]c2cc(N3CCCOC3=O)ccc2n1CC(F)CO)c1cccc(C(F)(F)F)c1` (stereo not shown) [Compound 145, (E)-N-(1-(2-fluoro-3-hydroxypropyl)-5-(2-oxo-1,3-oxazinan-3-yl)-1H-benzo[d]imidazol-2(3H)-ylidene)-3-(trifluoromethyl)benzamide] was run?
A: ≤ 100 nM

Q: And the IC50 (IRAK4)?
A: ≤ 100 nM
